From PMC7531004, “Discovery of gramicidin A analogues with altered activities by multidimensional screening of a one-bead-one-compound library” (Nature Communications, 2020)
Where a SMILES comes first, the peptide text is derived from it. [ ]: non-standard residue; d: D form. The star is where a group is joined. NHCH2CH2OH = OCCN*; For = O=C*

Assays:
[1] = system: Streptococcus pyogenes SSI-9; experiment: Antibacterial activity assay of bead-derived peptides (three concentrations); format: cell-based; set-up: key: +++: inhibition by the 640-fold diluted peptide solution; ++: inhibition by the 160-fold diluted solution; +: inhibition by the 40-fold diluted solution; -: no inhibition; conditions: S. pyogenes, bead-derived peptide solution, three concentrations
How it was run: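 Library peptide stock applied undiluted, 4-fold and 16-fold diluted in DMSO to S. pyogenes SSI-9 (2 × 10^5 CFU) in cation-adjusted Mueller Hinton broth with 5% laked horse blood. After 18 h at 37 °C, growth judged by visible cell precipitation.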

[2] = H+/Na+ transport assay of bead-derived peptides (one-point); format: biochemical; set-up: key: relative activity; mean of two control wells = 1.00; conditions: bead-derived peptide solution, EYPC/EYPG LUVs;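 note: relative to parent gramicidin A activity set to 1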
How it was run: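 Values are normalized fluorescence, with Triton X-100 defining 100% and untreated LUVs 0%, and the two control wells averaging 1.00. Vesicles carried 1.0 mM pyranine and included egg yolk phosphatidylglycerol. Peptides were incubated with them 30 min at room temperature.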

[3] = system: P388 mouse leukemia cells; conditions: 92 h
How it was run: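 P388 cells at 1 × 10^4 cells/mL (final) were exposed to library peptides (stocks diluted 250-fold in RPMI1640/10% FBS) for 92 h at 37 °C, 5% CO2. Viable cells were counted by WST-1/1-methoxy PMS (4 h), absorbance 415 nm, and expressed as cell viability (%).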

Row | Structure (SMILES) | antibacterial activity [1] | H+/Na+ transport activity normalized against the value of 1 (1.00) [2] | cell viability/% [3] [%]
1 | CC(C)C[C@@H](NC(=O)[C@H](C)NC(=O)[C@H](NC(=O)[C@H](C)NC(=O)CNC(=O)[C@@H](NC=O)C(C)C)C(C)C)C(=O)N[C@H](C(=O)N[C@@H](C(=O)N[C@@H](Cc1c[nH]c2ccccc12)C(=O)N[C@H](CC(C)C)C(=O)N[C@@H](Cc1c[nH]c2ccccc12)C(=O)N[C@H](CC(C)C)C(=O)N[C@@H](Cc1c[nH]c2ccccc12)C(=O)N[C@H](CC(C)C)C(=O)N[C@@H](Cc1c[nH]c2ccccc12)C(=O)NCCO)C(C)C)C(C)C [compound 9897] (For-VGA[dV]A[dL]V[dV]W[dL]W[dL]W[dL]W-NHCH2CH2OH) | + | 1.04 | 8.1
2 | CNC(=O)C[C@@H](NC(=O)[C@H](C)NC(=O)[C@@H](CC(C)C)NC(=O)[C@H](C)NC(=O)CNC(=O)[C@@H](NC=O)C(C)C)C(=O)N[C@H](C(=O)N[C@@H](C(=O)N[C@@H](Cc1c[nH]c2ccccc12)C(=O)N[C@H](CC(C)C)C(=O)N[C@@H](Cc1c[nH]c2ccccc12)C(=O)N[C@@H](C(=O)N[C@@H](Cc1c[nH]c2ccccc12)C(=O)N[C@H](CC(C)C)C(=O)N[C@@H](Cc1c[nH]c2ccccc12)C(=O)NCCO)C(C)C)C(C)C)C(C)C [compound 8265] (For-VGA[dL]A[dD](NHMe)V[dV]W[dL]W[dV]W[dL]W-NHCH2CH2OH) | - | 1.12 | 68.3
3 | CC(C)C[C@@H](NC(=O)[C@H](Cc1c[nH]c2ccccc12)NC(=O)[C@H](NC(=O)[C@H](Cc1c[nH]c2ccccc12)NC(=O)[C@H](NC(=O)[C@@H](NC(=O)[C@H](NC(=O)[C@H](C)NC(=O)[C@H](NC(=O)[C@H](C)NC(=O)CNC(=O)[C@@H](NC=O)C(C)C)C(C)C)C(C)C)C(C)C)C(C)C)C(C)C)C(=O)N[C@@H](Cc1c[nH]c2ccccc12)C(=O)N[C@@H](C(=O)N[C@@H](Cc1c[nH]c2ccccc12)C(=O)NCCO)C(C)C [compound 9571] (For-VGA[dV]A[dV]V[dV]W[dV]W[dL]W[dV]W-NHCH2CH2OH) | + | 1.14 | 100.0
4 | CC(C)C[C@@H](NC(=O)[C@H](Cc1c[nH]c2ccccc12)NC(=O)[C@@H](CC(C)C)NC(=O)[C@@H](NC(=O)[C@H](NC(=O)[C@H](C)NC(=O)[C@H](NC(=O)[C@H](C)NC(=O)CNC(=O)[C@@H](NC=O)C(C)C)[C@H](C)O)C(C)C)C(C)C)C(=O)N[C@@H](Cc1c[nH]c2ccccc12)C(=O)N[C@H](CC(C)C)C(=O)N[C@@H](Cc1c[nH]c2ccccc12)C(=O)N[C@@H](C(=O)N[C@@H](Cc1c[nH]c2ccccc12)C(=O)NCCO)C(C)C [compound 4236] (For-VGA[dT]A[dV]V[dL]W[dL]W[dL]W[dV]W-NHCH2CH2OH) | - | 1.43 | 93.0
5 | CC(C)C[C@@H](NC(=O)[C@H](Cc1c[nH]c2ccccc12)NC(=O)[C@H](NC(=O)[C@H](Cc1c[nH]c2ccccc12)NC(=O)[C@@H](CC(C)C)NC(=O)[C@H](Cc1c[nH]c2ccccc12)NC(=O)[C@H](NC(=O)[C@@H](NC(=O)[C@H](NC(=O)[C@H](C)NC(=O)[C@H](NC(=O)[C@H](C)NC(=O)CNC(=O)[C@@H](NC=O)C(C)C)C(C)C)C(C)C)C(C)C)C(C)C)C(C)C)C(=O)N[C@@H](Cc1c[nH]c2ccccc12)C(=O)NCCO [compound 9293] (For-VGA[dV]A[dV]V[dV]W[dL]W[dV]W[dL]W-NHCH2CH2OH) | ++ | 1.05 | 4.3
6 | CC(C)C[C@@H](NC(=O)[C@H](C)NC(=O)CNC(=O)[C@@H](NC=O)C(C)C)C(=O)N[C@@H](C)C(=O)N[C@H](CC(C)C)C(=O)N[C@H](C(=O)N[C@@H](C(=O)N[C@@H](Cc1c[nH]c2ccccc12)C(=O)N[C@@H](C(=O)N[C@@H](Cc1c[nH]c2ccccc12)C(=O)N[C@@H](C(=O)N[C@@H](Cc1c[nH]c2ccccc12)C(=O)N[C@@H](C(=O)N[C@@H](Cc1c[nH]c2ccccc12)C(=O)NCCO)C(C)C)[C@H](C)O)C(C)C)C(C)C)C(C)C [compound 2887] (For-VGA[dL]A[dL]V[dV]W[dV]W[dT]W[dV]W-NHCH2CH2OH) | - | 1.01 | 99.0
7 | CC(C)C[C@@H](NC(=O)[C@H](C)NC(=O)CNC(=O)[C@@H](NC=O)C(C)C)C(=O)N[C@@H](C)C(=O)N[C@H](CC(C)C)C(=O)N[C@H](C(=O)N[C@@H](C(=O)N[C@@H](Cc1c[nH]c2ccccc12)C(=O)N[C@@H](C(=O)N[C@@H](Cc1c[nH]c2ccccc12)C(=O)N[C@H](CC(C)C)C(=O)N[C@@H](Cc1c[nH]c2ccccc12)C(=O)N[C@H](CC(C)C)C(=O)N[C@@H](Cc1c[nH]c2ccccc12)C(=O)NCCO)C(C)C)C(C)C)C(C)C [compound 7198] (For-VGA[dL]A[dL]V[dV]W[dV]W[dL]W[dL]W-NHCH2CH2OH) | + | 1.09 | 16.1
8 | CC(C)C[C@@H](NC(=O)[C@H](C)NC(=O)[C@H](NC(=O)[C@H](C)NC(=O)CNC(=O)[C@@H](NC=O)C(C)C)C(C)C)C(=O)N[C@H](C(=O)N[C@@H](C(=O)N[C@@H](Cc1c[nH]c2ccccc12)C(=O)N[C@@H](C(=O)N[C@@H](Cc1c[nH]c2ccccc12)C(=O)N[C@H](CC(C)C)C(=O)N[C@@H](Cc1c[nH]c2ccccc12)C(=O)N[C@@H](C(=O)N[C@@H](Cc1c[nH]c2ccccc12)C(=O)NCCO)[C@H](C)O)C(C)C)C(C)C)C(C)C [compound 8731] (For-VGA[dV]A[dL]V[dV]W[dV]W[dL]W[dT]W-NHCH2CH2OH) | - | 1.05 | 71.2
9 | CC(C)C[C@@H](NC(=O)[C@H](C)NC(=O)[C@H](NC(=O)[C@H](C)NC(=O)CNC(=O)[C@@H](NC=O)C(C)C)[C@H](C)O)C(=O)N[C@H](C(=O)N[C@@H](C(=O)N[C@@H](Cc1c[nH]c2ccccc12)C(=O)N[C@@H](C(=O)N[C@@H](Cc1c[nH]c2ccccc12)C(=O)N[C@H](CC(C)C)C(=O)N[C@@H](Cc1c[nH]c2ccccc12)C(=O)N[C@@H](C(=O)N[C@@H](Cc1c[nH]c2ccccc12)C(=O)NCCO)C(C)C)C(C)C)C(C)C)C(C)C [compound 6857] (For-VGA[dT]A[dL]V[dV]W[dV]W[dL]W[dV]W-NHCH2CH2OH) | - | 1.16 | 100.0
10 | CC(C)C[C@@H](NC(=O)[C@H](Cc1c[nH]c2ccccc12)NC(=O)[C@H](NC(=O)[C@H](Cc1c[nH]c2ccccc12)NC(=O)[C@H](NC(=O)[C@H](Cc1c[nH]c2ccccc12)NC(=O)[C@H](NC(=O)[C@@H](NC(=O)[C@H](NC(=O)[C@H](C)NC(=O)[C@H](NC(=O)[C@H](C)NC(=O)CNC(=O)[C@@H](NC=O)C(C)C)C(C)C)[C@H](C)O)C(C)C)C(C)C)C(C)C)C(C)C)C(=O)N[C@@H](Cc1c[nH]c2ccccc12)C(=O)NCCO [compound 379] (For-VGA[dV]A[dT]V[dV]W[dV]W[dV]W[dL]W-NHCH2CH2OH) | - | 1.19 | 100.0
11 | CC(C)C[C@@H](NC(=O)[C@H](C)NC(=O)[C@H](NC(=O)[C@H](C)NC(=O)CNC(=O)[C@@H](NC=O)C(C)C)C(C)C)C(=O)N[C@H](C(=O)N[C@@H](C(=O)N[C@@H](Cc1c[nH]c2ccccc12)C(=O)N[C@H](CC(C)C)C(=O)N[C@@H](Cc1c[nH]c2ccccc12)C(=O)N[C@@H](C(=O)N[C@@H](Cc1c[nH]c2ccccc12)C(=O)N[C@H](CC(C)C)C(=O)N[C@@H](Cc1c[nH]c2ccccc12)C(=O)NCCO)C(C)C)C(C)C)C(C)C [compound 7146] (For-VGA[dV]A[dL]V[dV]W[dL]W[dV]W[dL]W-NHCH2CH2OH) | + | 1.17 | 100.0
12 | CC(C)C[C@@H](NC(=O)[C@H](Cc1c[nH]c2ccccc12)NC(=O)[C@H](NC(=O)[C@H](Cc1c[nH]c2ccccc12)NC(=O)[C@@H](CC(C)C)NC(=O)[C@@H](NC(=O)[C@H](NC(=O)[C@H](C)NC(=O)[C@H](NC(=O)[C@H](C)NC(=O)CNC(=O)[C@@H](NC=O)C(C)C)C(C)C)C(C)C)C(C)C)C(C)C)C(=O)N[C@@H](Cc1c[nH]c2ccccc12)C(=O)N[C@@H](C(=O)N[C@@H](Cc1c[nH]c2ccccc12)C(=O)NCCO)C(C)C [compound 5526] (For-VGA[dV]A[dV]V[dL]W[dV]W[dL]W[dV]W-NHCH2CH2OH) | + | 1.17 | 100.0
13 | CC(C)C[C@@H](NC(=O)[C@H](Cc1c[nH]c2ccccc12)NC(=O)[C@H](NC(=O)[C@H](Cc1c[nH]c2ccccc12)NC(=O)[C@H](NC(=O)[C@@H](NC(=O)[C@H](NC(=O)[C@H](C)NC(=O)[C@H](NC(=O)[C@H](C)NC(=O)CNC(=O)[C@@H](NC=O)C(C)C)[C@H](C)O)C(C)C)C(C)C)C(C)C)C(C)C)C(=O)N[C@@H](Cc1c[nH]c2ccccc12)C(=O)N[C@@H](C(=O)N[C@@H](Cc1c[nH]c2ccccc12)C(=O)NCCO)C(C)C [compound 10653] (For-VGA[dT]A[dV]V[dV]W[dV]W[dL]W[dV]W-NHCH2CH2OH) | - | 1.04 | 44.1
